The NIST ThermoML archive (doi:10.1016/j.jct.2009.06.021)

What was measured:
[1] = for surface tension liquid-gas: Maximal bubble pressure; for mass density: 101.33 kPa, Liquid, Vibrating tube method
[2] = xn = mol fraction of the nth substance listed; conditions: for surface tension liquid-gas: Maximal bubble pressure; for mass density: 101 kPa, Liquid, Vibrating tube method

CCCCS(=O)CCCC [dibutyl sulfoxide]
[1], 313.15 K
Conditions	mass density [kg/m3]	surface tension liquid-gas [mN/m]
–	922.34	28.5

CCCCS(=O)CCCC [dibutyl sulfoxide] + ClC(Cl)(Cl)Cl
[2], 313.15 K
Conditions	mass density [kg/m3]	surface tension liquid-gas [mN/m]
x2 = 0.1074	963.82	–
x2 = 0.2232	–	28
x2 = 0.2288	1017.38	–
x2 = 0.303	1052.44	–
x2 = 0.4057	1106.17	–
x2 = 0.4457	–	27.3
x2 = 0.4984	1157.99	–
x2 = 0.51	–	27
x2 = 0.5476	–	26.7
x2 = 0.601	1222.74	–
x2 = 0.6539	–	25.9
x2 = 0.7009	1292.11	–
x2 = 0.7038	–	25.4
x2 = 0.7998	–	24.5
x2 = 0.8019	1370.59	–
x2 = 0.8962	–	23.5

CC[S+]([O-])CC [diethyl sulfoxide]
[1]
Conditions	mass density [kg/m3]	surface tension liquid-gas [mN/m]
298.15 K	1009.51	34.6
303.15 K	1005.14	34.3
308.15 K	1000.77	34
313.15 K	996.4	33.7

CC[S+]([O-])CC [diethyl sulfoxide] + ClC(Cl)(Cl)Cl
[2]
Conditions	mass density, 298.15 K [kg/m3]	mass density, 303.15 K [kg/m3]	mass density, 308.15 K [kg/m3]	mass density, 313.15 K [kg/m3]	surface tension liquid-gas, 298.15 K [mN/m]	surface tension liquid-gas, 303.15 K [mN/m]	surface tension liquid-gas, 308.15 K [mN/m]	surface tension liquid-gas, 313.15 K [mN/m]
x2 = 0.0408	1036.23	1031.26	1024.88	1020.51	–	–	–	–
x2 = 0.1016	–	–	–	–	35	34.7	34.1	33.6
x2 = 0.1065	1074.77	1069.42	1064.04	1058.67	–	–	–	–
x2 = 0.218	–	–	–	–	33.9	33.4	32.7	32.1
x2 = 0.2249	1142.65	1137.29	1131.92	1126.55	–	–	–	–
x2 = 0.3172	–	–	–	–	32	31.5	30.9	30.3
x2 = 0.3231	1198.5	1192.67	1186.82	1180.98	–	–	–	–
x2 = 0.4093	–	–	–	–	30.3	29.8	29.2	28.6
x2 = 0.4567	1273.33	1266.87	1260.4	1253.92	–	–	–	–
x2 = 0.4782	–	–	–	–	29.1	28.6	28.1	27.6
x2 = 0.5102	–	–	–	–	28.5	28	27.6	27.1
x2 = 0.6562	–	–	–	–	27	26.5	25.9	25.3
x2 = 0.7363	1433.49	1425.5	1417.48	1409.44	–	–	–	–
x2 = 0.7512	–	–	–	–	26.2	25.7	25.1	24.5
x2 = 0.8701	–	–	–	–	25.3	24.7	24.1	23.5
x2 = 0.8985	1527.46	1519.07	1509.96	1500.84	–	–	–	–
x2 = 0.9419	–	–	–	–	24.6	24	23.5	22.9
x2 = 0.9533	1558.34	1548.91	1539.42	1529.92	–	–	–	–

C[S+](C)[O-] [dimethyl sulfoxide]
[1]
Conditions	mass density [kg/m3]	surface tension liquid-gas [mN/m]
298.15 K	1095.35	42.5
303.15 K	1090.33	42
308.15 K	1085.32	41.5
313.15 K	1080.29	41

CCCS(=O)CCC [dipropyl sulfoxide]
[1]
Conditions	mass density [kg/m3]	surface tension liquid-gas [mN/m]
298.15 K	957.77	32.6
303.15 K	953.67	32
308.15 K	949.58	31.5
313.15 K	945.5	31

CCCS(=O)CCC [dipropyl sulfoxide] + ClC(Cl)(Cl)Cl
[2]
Conditions	mass density, 298.15 K [kg/m3]	mass density, 303.15 K [kg/m3]	mass density, 308.15 K [kg/m3]	mass density, 313.15 K [kg/m3]	surface tension liquid-gas, 298.15 K [mN/m]	surface tension liquid-gas, 303.15 K [mN/m]	surface tension liquid-gas, 308.15 K [mN/m]	surface tension liquid-gas, 313.15 K [mN/m]
x2 = 0.0837	997.89	993.53	989.15	984.79	–	–	–	–
x2 = 0.2049	–	–	–	–	31.2	30.8	30.4	29.9
x2 = 0.2132	1061.92	1057.03	1052.27	1047.44	–	–	–	–
x2 = 0.2784	1097.07	1091.98	1086.9	1081.81	–	–	–	–
x2 = 0.2998	–	–	–	–	30.8	30.4	29.9	29.5
x2 = 0.4165	–	–	–	–	30.4	29.8	29.3	28.7
x2 = 0.4545	1197.46	1191.59	1185.73	1179.84	–	–	–	–
x2 = 0.5304	–	–	–	–	29.6	28.9	28.2	27.7
x2 = 0.6109	–	–	–	–	28.8	28.1	27.5	26.9
x2 = 0.6285	1305.93	1299.22	1292.38	1285.53	–	–	–	–
x2 = 0.704	1356.22	1348.94	1341.67	1334.38	–	–	–	–
x2 = 0.7078	–	–	–	–	27.6	26.9	26.2	25.7
x2 = 0.8055	–	–	–	–	26.3	25.7	25.1	24.5
x2 = 0.8468	1461.39	1453.03	1444.65	1436.24	–	–	–	–
x2 = 0.8547	1466.95	1458.55	1450.15	1441.7	–	–	–	–
x2 = 0.8995	–	–	–	–	25.3	24.7	24.1	23.5
x2 = 0.9178	1516.99	1508.02	1499.04	1490.03	–	–	–	–
x2 = 0.9588	1550.62	1541.21	1531.83	1522.41	–	–	–	–

ClC(Cl)(Cl)Cl [tetrachloromethane]
[1]
Conditions	mass density [kg/m3]	surface tension liquid-gas [mN/m]
298.15 K	1584.36	24.2
303.15 K	1574.61	23.7
308.15 K	1564.83	23
313.15 K	1554.96	22.3
